Publication PMC12326988, “Synthetic host defense peptide inhibits SARS-CoV-2 replication in vitro” (Antimicrobial Agents and Chemotherapy, 2025)
In brackets after ≈: the same amount, converted by molar mass. Square brackets hold non-standard residues; d marks the D form. Ends that are not written are not given here. Peptide text beside a SMILES is read from it.

Key:
[1] = test system: SARS-CoV-2 hCoV-19/New Zealand/NZ1_patient/2020; details: hCoV-19/New Zealand/NZ1 patient/2020, 72 h
[2] = test system: SARS-CoV-2 hCoV-19/New Zealand/NZ1_patient/2020; details: hCoV-19/New Zealand/NZ1 patient/2020, 72 h; remark: listed apart in the source
[3] = test system: SARS-CoV-2 (Wuhan) spike-pseudotyped virus; details: for EC50, entry of pseudotyped virus: HEK293T-ACE2 cells incubated with agent prior to pseudotyped virus
[4] = test system: SARS-CoV-2-Nluc; details: 72 h
[5] = test system: MDCK cells; details: 50 µg/mL
[6] = test system: ELVIRA Flu A cells; details: 50 µg/mL
[7] = in vitro; details: African green monkey
[8] = in vitro; details: African green monkey; human
[9] = test system: SARS-CoV-2 hCoV-19/New Zealand/NZ1_patient/2020; type: cell-based
[10] = test system: SARS-CoV-2 γ spike-pseudotyped virus; type: cell-based; details: virus exposed to agent 1 h, then HEK293T-hACE2 cells
[11] = test system: VSV-g-pseudotyped virus; type: cell-based; details: virus exposed to agent 1 h, then HEK293T-hACE2 cells
[12] = test system: authentic SARS-CoV-2 virions; details: 100 µg/mL, 1 h
[13] = test system: binding of the SARS-CoV-2 RBD to its human ACE2 receptor; details: cited from earlier work
[14] = target: binding between SARS-CoV-2 Wuhan RBD-Fc and hACE2-AP (UniProt P0DTC2+Q9BYF1); set-up: species or system SARS-CoV-2; human
Sequence of binding between SARS-CoV-2 Wuhan RBD-Fc and hACE2-AP (Q9BYF1 18-740, one chain of several): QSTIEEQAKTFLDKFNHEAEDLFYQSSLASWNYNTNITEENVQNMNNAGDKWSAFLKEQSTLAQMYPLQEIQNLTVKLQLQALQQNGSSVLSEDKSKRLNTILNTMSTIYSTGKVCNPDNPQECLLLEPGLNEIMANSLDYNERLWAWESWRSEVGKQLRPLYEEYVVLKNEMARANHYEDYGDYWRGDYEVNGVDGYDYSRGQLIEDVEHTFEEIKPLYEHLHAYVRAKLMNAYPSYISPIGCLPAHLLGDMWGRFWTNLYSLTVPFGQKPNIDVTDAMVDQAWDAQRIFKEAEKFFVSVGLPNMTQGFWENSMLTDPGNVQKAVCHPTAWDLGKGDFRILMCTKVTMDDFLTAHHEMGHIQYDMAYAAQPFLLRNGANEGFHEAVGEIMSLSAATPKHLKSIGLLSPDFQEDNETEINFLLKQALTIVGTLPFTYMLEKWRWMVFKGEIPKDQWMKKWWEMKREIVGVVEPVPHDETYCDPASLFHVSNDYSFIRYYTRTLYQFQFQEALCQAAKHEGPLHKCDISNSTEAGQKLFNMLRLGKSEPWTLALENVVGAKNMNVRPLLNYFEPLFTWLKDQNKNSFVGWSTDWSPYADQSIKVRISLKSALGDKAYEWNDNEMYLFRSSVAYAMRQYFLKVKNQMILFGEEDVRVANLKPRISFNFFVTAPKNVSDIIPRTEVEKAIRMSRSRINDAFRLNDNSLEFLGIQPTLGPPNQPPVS

## CC[C@@H](C)[C@@H](N)C(=O)N[C@H](Cc1c[nH]c2ccccc12)C(=O)N[C@H](CC(C)C)C(=O)N[C@H](CCCNC(=N)N)C(=O)N[C@H](CC(C)C)C(=O)N[C@H](CCCCN)C(=O)N[C@@H](C(=O)N[C@@H](C(=O)N[C@H](CC(C)C)C(=O)N[C@H](CCCCN)C(=O)N[C@H](CCCNC(=N)N)C(=O)N[C@H](CCCCN)C(N)=O)C(C)C)C(C)C [D-3006, iwlrlkvvlkrk-NH2] (H-[dI][dW][dL][dR][dL][dK][dV][dV][dL][dK][dR][dK]-NH2)
[1]
  EC50 Vero: 1.57 µg/mL (≈ 1.01 µM)
[2]
  EC50 VeroE6/TMPRSS2: 5.37 µg/mL (≈ 3.46 µM)
[3]
  EC50, entry of pseudotyped virus: 5.84 µg/mL
[4]
  EC50: 5.4 µg/mL (≈ 3.48 µM)
[5]
  cell viability: did not affect the viability
[6]
  cell viability: did not affect the viability
[7]
  CC50: 430 µg/mL
[8]
  CC50 at 48 h: > 100 µg/mL

## CC[C@@H](C)[C@@H](NC(=O)[C@@H](CCCCN)NC(=O)[C@@H](CC(C)C)NC(=O)[C@H](N)C(C)C)C(=O)N[C@H](CCCCN)C(=O)N[C@@H](C(=O)N[C@H](CCCCN)C(=O)N[C@@H](C(=O)N[C@H](Cc1c[nH]c2ccccc12)C(=O)N[C@@H](C(=O)N[C@@H](C(=O)N[C@H](CCCCN)C(N)=O)C(C)C)C(C)C)[C@H](C)CC)C(C)C [D-3007, vlkikvkiwvvk-NH2] (H-[dV][dL][dK][dI][dK][dV][dK][dI][dW][dV][dV][dK]-NH2)
[1]
  EC50 Vero: 23.86 µg/mL (≈ 16.4 µM)
[2]
  EC50 VeroE6/TMPRSS2: 30.53 µg/mL (≈ 21 µM)
[7]
  CC50: 708 µg/mL

## CC[C@@H](C)[C@@H](NC(=O)[C@@H](C)NC(=O)[C@@H](CCCNC(=N)N)NC(=O)[C@@H](Cc1c[nH]c2ccccc12)NC(=O)[C@@H](CCC(N)=O)NC(=O)[C@H](N)C(C)C)C(=O)N[C@H](CCCNC(=N)N)C(=O)N[C@@H](C(=O)N[C@H](CCCNC(=N)N)C(=O)N[C@@H](C(=O)N[C@@H](C(=O)N[C@H](CCCNC(=N)N)C(N)=O)[C@H](C)CC)C(C)C)C(C)C [DJK-5, vqwrairvrvir-NH2] (H-[dV][dQ][dW][dR][dA][dI][dR][dV][dR][dV][dI][dR]-NH2)
[1]
  EC50 Vero: 25.16 µg/mL (≈ 16.2 µM)
[2]
  EC50 VeroE6/TMPRSS2: 29.31 µg/mL (≈ 18.9 µM)
[7]
  CC50: 517 µg/mL

## CCC(CC)COC(=O)[C@H](C)N[P@](=O)(OC[C@H]1O[C@@](C#N)(c2ccc3c(N)ncnn23)[C@H](O)[C@@H]1O)Oc1ccccc1 [Remdesivir, remdesivir, reference compound]
[9]
  inhibition of SARS-CoV-2 replication: 98%
[7]
  CC50: > 100 µM

## CC[C@H](C)[C@H](NC(=O)CN)C(=O)NCC(=O)N[C@@H](C)C(=O)N[C@H](C(=O)N[C@@H](CC(C)C)C(=O)N[C@@H](CCCCN)C(=O)N[C@H](C(=O)N[C@@H](CC(C)C)C(=O)N[C@H](C(=O)N[C@H](C(=O)NCC(=O)N[C@@H](CC(C)C)C(=O)N1CCC[C@H]1C(=O)N[C@@H](C)C(=O)N[C@@H](CC(C)C)C(=O)N[C@H](C(=O)N[C@@H](CO)C(=O)N[C@@H](Cc1c[nH]c2ccccc12)C(=O)N[C@H](C(=O)N[C@@H](CCCCN)C(=O)N[C@@H](CCCNC(=N)N)C(=O)N[C@@H](CCCCN)C(=O)N[C@@H](CCCNC(=N)N)C(=O)N[C@@H](CCC(N)=O)C(=O)N[C@@H](CCC(N)=O)C(N)=O)[C@@H](C)CC)[C@@H](C)CC)[C@@H](C)O)[C@@H](C)O)C(C)C)C(C)C [melittin]
[10]
  NT50: 11.6 µg/mL
[11]
  NT50: 5.51 µg/mL
[12]
  mean number of intact virus particles per field: 1.3
[3]
  EC50, entry of pseudotyped virus: 13.2 µg/mL
[3]; agent incubated with pseudotyped virus 1 h, then HEK293T-hACE2 cells
  NT50: 12.5 µg/mL
[8]
  viability: 51.7%

## HNP1
[13]
  affinity, interference with binding of SARS-CoV-2 RBD to human ACE2: 160 nM

## LL-37
[13]
  affinity, interference with binding of SARS-CoV-2 RBD to human ACE2: 25.5 nM

## VRLIVAVRIWRR-NH2 [IDR-1018]
[1]
  EC50 Vero: 21.79 µg/mL
[2]
  EC50 VeroE6/TMPRSS2: 28.72 µg/mL
[7]
  CC50: 686 µg/mL

## shACE2
[9]
  inhibition of SARS-CoV-2 replication: 72%
[14]
  IC50, inhibition of hACE2-RBD binding: 6.6 µg/mL
[11]
  NT50: > 100 µg/mL
